This note sets out measurements from ChEMBL document CHEMBL5465560, “Selectivity Literature for EUbOPEN Chemogenomic Library” (2024).

Assay [1] has as its target T1, Ankyrin repeat and protein kinase domain-containing protein 1 (Homo sapiens) (UniProt Q8NFD2).
T1 sequence (whole entry): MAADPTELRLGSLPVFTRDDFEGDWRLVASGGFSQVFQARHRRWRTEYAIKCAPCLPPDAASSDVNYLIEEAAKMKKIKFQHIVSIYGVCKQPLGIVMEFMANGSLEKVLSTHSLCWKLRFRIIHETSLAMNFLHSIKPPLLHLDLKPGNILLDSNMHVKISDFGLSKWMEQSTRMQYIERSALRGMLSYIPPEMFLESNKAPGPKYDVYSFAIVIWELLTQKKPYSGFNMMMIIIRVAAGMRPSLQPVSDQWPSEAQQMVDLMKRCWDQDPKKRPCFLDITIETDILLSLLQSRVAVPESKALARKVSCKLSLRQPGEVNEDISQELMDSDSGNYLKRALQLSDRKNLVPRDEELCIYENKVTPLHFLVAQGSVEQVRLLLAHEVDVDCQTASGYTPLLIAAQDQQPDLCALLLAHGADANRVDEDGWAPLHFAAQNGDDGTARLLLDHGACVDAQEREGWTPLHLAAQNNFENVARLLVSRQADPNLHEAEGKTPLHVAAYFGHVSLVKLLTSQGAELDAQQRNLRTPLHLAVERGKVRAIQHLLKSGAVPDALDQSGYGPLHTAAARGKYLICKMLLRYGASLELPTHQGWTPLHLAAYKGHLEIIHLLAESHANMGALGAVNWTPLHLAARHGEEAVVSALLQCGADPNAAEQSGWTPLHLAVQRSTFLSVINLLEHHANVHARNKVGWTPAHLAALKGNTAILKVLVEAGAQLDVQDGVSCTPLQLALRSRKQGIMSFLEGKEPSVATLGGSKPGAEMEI
Description: Selectivity interaction (KinomeScan (DiscoverX)) EUB0000607a ANKK1. The following applies: at 10 µM.

The target of assay [2] is Serine/threonine-protein kinase 33 (Homo sapiens) (UniProt Q9BYT3). Briefly: Selectivity interaction (KinomeScan (DiscoverX)) EUB0000229b STK33. The following applies: at 10 µM.
Chain of Serine/threonine-protein kinase 33 (Homo sapiens) (Q9BYT3 whole entry, looked up): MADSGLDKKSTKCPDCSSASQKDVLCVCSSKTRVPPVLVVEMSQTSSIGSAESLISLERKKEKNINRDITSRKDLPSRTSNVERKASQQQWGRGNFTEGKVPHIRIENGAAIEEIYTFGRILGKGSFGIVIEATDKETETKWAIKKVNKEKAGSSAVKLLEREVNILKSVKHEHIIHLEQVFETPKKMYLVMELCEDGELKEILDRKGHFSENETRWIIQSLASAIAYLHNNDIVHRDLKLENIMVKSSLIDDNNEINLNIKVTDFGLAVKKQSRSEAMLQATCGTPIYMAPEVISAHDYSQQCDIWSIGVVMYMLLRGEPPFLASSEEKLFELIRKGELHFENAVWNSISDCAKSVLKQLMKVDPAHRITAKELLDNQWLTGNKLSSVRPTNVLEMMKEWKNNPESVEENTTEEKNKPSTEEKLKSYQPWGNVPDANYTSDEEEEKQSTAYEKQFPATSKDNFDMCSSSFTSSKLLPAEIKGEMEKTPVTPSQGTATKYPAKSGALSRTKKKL
Assay [3] deals with Tyrosine-protein kinase Yes (Homo sapiens) (UniProt P07947). Description: Selectivity interaction (KinomeScan (DiscoverX)) EUB0000655a YES1. The following applies: at 10 µM.
For assay [4], the target named is T2, Receptor-type tyrosine-protein kinase FLT3 (Homo sapiens, UniProt P36888).
T2 sequence (P36888 whole entry): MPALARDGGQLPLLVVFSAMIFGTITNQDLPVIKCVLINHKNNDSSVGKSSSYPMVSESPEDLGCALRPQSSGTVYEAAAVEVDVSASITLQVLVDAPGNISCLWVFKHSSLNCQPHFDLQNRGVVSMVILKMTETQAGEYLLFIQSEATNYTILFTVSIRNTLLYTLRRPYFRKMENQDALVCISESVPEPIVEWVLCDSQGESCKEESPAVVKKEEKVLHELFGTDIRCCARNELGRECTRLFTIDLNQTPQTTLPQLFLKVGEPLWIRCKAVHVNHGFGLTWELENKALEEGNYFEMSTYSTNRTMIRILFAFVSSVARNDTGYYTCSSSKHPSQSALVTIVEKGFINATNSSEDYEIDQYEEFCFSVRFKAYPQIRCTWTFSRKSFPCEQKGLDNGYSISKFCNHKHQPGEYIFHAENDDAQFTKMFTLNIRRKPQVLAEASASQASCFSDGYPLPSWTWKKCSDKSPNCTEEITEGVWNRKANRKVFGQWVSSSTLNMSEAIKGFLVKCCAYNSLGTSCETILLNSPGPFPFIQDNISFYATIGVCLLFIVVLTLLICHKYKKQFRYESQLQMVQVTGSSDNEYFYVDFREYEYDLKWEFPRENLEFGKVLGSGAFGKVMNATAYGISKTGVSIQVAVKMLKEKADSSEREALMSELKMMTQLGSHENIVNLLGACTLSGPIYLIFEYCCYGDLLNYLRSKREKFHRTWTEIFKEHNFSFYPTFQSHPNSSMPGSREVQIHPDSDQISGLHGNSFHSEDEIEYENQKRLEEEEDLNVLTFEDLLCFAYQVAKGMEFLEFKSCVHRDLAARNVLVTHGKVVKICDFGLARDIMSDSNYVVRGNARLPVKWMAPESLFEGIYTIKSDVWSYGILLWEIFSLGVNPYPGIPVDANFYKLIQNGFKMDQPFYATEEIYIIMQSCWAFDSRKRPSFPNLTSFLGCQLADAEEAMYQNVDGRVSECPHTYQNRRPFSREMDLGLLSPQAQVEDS
Description: Selectivity interaction (Kinase panel (Eurofins, enzymatic assay)) EUB0000311b FLT3.

Assay [5] deals with Serine/threonine-protein kinase 10 (Homo sapiens) (UniProt O94804). Briefly: Selectivity interaction (ActivX KiNativ screen (kinase selectivity in THP-1 cell lysates)) EUB0000639a STK10. In kind it is subcellular. The following applies: lysate, at 0.04 µM.
Chain of Serine/threonine-protein kinase 10 (Homo sapiens) (O94804 whole entry, looked up): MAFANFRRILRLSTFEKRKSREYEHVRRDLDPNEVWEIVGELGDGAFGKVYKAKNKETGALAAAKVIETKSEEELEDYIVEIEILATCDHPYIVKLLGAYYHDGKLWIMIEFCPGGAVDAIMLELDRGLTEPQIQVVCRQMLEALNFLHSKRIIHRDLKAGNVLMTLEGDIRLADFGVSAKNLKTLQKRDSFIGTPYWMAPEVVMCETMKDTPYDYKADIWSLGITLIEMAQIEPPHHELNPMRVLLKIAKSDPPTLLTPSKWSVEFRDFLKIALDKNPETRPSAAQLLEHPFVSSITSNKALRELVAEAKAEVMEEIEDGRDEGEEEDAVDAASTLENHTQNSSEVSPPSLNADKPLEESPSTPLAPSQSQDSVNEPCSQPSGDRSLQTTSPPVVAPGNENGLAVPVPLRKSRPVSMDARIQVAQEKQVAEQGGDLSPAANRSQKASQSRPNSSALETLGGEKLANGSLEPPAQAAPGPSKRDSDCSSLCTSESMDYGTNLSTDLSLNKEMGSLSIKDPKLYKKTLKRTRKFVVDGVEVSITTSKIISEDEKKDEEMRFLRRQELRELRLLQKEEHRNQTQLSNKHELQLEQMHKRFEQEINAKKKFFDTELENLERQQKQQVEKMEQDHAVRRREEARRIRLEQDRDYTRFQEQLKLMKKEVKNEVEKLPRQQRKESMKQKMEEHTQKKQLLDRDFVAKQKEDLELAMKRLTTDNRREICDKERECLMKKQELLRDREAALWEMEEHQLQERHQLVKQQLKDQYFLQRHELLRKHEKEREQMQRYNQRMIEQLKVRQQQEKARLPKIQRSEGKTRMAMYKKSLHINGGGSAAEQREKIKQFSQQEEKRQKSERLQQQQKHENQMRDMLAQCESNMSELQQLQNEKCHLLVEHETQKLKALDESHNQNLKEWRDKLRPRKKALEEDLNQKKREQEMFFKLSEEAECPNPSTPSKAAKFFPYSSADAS
The target in assay [6] is Calcium/calmodulin-dependent protein kinase type II subunit beta (Homo sapiens) (UniProt Q13554). Briefly: Selectivity interaction (KinomeScan (DiscoverX)) EUB0001049a CAMK2B. The following applies: at 1 µM.
Chain of Calcium/calmodulin-dependent protein kinase type II subunit beta (Homo sapiens) (Q13554 whole entry): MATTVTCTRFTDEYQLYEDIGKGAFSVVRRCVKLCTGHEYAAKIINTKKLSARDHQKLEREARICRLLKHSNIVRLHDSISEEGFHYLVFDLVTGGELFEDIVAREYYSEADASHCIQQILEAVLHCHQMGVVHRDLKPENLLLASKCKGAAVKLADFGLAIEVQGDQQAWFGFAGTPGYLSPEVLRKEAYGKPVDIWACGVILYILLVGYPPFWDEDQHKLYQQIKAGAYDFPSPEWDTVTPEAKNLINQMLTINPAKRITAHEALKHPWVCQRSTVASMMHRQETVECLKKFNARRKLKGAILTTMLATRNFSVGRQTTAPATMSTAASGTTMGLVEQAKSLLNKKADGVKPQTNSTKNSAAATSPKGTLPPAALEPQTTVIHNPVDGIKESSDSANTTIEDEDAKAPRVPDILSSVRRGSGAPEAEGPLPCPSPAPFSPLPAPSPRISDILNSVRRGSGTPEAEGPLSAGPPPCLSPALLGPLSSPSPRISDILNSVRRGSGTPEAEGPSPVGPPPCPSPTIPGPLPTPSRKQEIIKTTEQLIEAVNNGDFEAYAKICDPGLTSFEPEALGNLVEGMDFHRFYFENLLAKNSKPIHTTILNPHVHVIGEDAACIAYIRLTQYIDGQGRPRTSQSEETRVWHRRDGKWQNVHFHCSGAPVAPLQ
Assay [7] deals with Serine/threonine-protein kinase Nek6 (Homo sapiens) (UniProt Q9HC98). Briefly: Selectivity interaction (ProQinase) EUB0000171b NEK6.
Chain of Serine/threonine-protein kinase Nek6 (Homo sapiens) (Q9HC98 whole entry): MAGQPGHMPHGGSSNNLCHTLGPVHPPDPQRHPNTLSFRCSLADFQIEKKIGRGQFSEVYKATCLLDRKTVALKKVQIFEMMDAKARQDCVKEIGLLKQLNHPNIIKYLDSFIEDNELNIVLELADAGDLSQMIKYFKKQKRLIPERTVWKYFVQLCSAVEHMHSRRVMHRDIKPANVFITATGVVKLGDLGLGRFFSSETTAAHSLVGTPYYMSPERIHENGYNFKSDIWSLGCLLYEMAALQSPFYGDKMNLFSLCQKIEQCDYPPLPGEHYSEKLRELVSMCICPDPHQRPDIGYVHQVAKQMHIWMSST
Assay [8] deals with Epidermal growth factor receptor (Homo sapiens), P00533 [UNDEFINED MUTATION]. Description: Selectivity interaction (KinomeScan (DiscoverX)) EUB0000045b EGFR. The following applies: at 1 µM.
Chain of Epidermal growth factor receptor (Homo sapiens), P00533 [UNDEFINED MUTATION] (P00533 whole entry, looked up, change not shown): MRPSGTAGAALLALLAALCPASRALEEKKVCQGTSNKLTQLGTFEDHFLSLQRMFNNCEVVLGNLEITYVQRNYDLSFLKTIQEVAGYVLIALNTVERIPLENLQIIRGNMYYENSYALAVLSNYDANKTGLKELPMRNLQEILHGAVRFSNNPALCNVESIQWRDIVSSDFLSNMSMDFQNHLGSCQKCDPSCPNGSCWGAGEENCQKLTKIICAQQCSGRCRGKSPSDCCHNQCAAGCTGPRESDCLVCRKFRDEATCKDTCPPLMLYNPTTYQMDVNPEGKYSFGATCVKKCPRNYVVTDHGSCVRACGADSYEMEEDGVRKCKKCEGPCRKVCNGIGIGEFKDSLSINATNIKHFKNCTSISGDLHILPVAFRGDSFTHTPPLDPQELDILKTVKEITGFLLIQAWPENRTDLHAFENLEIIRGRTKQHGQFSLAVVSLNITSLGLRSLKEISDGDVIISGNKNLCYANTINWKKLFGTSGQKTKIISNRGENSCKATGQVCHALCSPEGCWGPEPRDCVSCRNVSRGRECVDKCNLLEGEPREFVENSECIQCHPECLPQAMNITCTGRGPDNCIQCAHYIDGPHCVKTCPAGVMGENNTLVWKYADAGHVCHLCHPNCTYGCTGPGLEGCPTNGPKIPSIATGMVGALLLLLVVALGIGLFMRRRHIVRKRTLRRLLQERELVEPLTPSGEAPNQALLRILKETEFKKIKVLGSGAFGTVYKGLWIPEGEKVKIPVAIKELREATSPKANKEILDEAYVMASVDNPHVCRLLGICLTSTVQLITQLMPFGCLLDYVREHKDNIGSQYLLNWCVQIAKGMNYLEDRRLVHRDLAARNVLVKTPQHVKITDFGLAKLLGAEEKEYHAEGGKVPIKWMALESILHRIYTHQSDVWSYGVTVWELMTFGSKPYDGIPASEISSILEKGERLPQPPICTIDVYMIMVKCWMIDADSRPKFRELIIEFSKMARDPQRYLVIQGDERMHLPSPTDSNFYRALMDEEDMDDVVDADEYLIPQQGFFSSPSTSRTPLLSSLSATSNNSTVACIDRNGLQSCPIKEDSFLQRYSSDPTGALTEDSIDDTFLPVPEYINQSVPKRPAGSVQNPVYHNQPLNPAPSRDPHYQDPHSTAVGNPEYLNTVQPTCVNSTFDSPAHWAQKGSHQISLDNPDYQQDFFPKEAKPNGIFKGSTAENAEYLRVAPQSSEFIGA
In assay [9] the target is T3, Activin receptor type-1 (Homo sapiens) (UniProt Q04771).
T3 sequence (whole entry): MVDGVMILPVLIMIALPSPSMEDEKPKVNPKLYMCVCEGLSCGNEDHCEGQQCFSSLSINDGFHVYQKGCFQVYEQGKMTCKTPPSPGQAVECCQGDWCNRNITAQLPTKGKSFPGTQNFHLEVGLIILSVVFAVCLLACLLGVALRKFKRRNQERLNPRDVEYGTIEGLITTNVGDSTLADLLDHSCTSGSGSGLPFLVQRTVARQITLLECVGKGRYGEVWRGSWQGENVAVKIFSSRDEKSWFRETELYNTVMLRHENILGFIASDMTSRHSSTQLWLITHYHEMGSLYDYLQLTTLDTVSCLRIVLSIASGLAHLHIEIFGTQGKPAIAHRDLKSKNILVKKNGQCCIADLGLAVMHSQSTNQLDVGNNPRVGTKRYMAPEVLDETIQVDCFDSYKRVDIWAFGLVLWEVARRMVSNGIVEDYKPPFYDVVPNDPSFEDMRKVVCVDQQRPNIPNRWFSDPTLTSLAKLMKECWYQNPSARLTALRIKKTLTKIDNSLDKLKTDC
Description: Selectivity interaction (KinomeScan (DiscoverX)) EUB0000045b ACVR1.

In assay [10] the target is Epithelial discoidin domain-containing receptor 1 (Homo sapiens) (UniProt Q08345). The following applies: at 10 µM.
Chain of Epithelial discoidin domain-containing receptor 1 (Homo sapiens) (Q08345 whole entry, the tested form may be a part): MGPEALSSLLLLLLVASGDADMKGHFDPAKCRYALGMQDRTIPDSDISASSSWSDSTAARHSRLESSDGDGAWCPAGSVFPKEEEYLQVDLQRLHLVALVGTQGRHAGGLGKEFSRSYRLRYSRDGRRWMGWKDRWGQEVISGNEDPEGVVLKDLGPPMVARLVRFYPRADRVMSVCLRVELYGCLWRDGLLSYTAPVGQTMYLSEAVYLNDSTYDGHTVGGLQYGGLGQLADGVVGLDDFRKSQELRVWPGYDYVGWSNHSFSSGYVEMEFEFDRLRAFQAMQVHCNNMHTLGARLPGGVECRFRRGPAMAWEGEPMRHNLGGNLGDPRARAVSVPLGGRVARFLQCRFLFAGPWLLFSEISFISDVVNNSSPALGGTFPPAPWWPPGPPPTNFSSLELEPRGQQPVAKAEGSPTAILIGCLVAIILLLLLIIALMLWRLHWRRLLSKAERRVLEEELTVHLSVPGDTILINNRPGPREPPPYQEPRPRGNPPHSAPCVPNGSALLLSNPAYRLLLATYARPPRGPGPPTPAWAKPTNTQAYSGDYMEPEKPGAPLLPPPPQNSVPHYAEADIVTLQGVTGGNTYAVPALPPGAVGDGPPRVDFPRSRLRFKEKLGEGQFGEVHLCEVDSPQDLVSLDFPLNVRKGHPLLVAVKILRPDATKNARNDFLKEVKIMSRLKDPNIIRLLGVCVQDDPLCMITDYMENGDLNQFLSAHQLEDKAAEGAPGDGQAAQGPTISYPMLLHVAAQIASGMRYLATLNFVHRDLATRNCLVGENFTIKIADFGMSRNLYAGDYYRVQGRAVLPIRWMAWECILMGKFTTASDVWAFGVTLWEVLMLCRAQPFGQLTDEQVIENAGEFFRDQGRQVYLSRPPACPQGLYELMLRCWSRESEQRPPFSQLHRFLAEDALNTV

For the compound `CNC(=O)Nc1ccc(-c2nc(N3CC4CCC(C3)O4)c3cnn(C4CCC5(CC4)OCCO5)c3n2)cc1`, in [1], the % of control is 77%.
`COc1cc(N(C)c2ccnc3ccc(C(F)(F)F)cc23)cc(OC)c1OC` showed a % binding in assay [2] of 92%.
In assay [3], `CN(C)CCOc1ccc(-c2nc(-c3ccncc3)c(-c3ccc4c(c3)CC/C4=N\O)[nH]2)cc1` displayed a % of control of 100%.
As a reminder, the IC50 is the concentration at which inhibition is half-maximal. The low end stands for higher potency, the high end for lower potency. The compound `CCc1ccccc1C(=O)Nc1n[nH]c2c(C)c(F)c(C3C(C#N)=C(C)N(C)C(C)=C3C#N)cc12` [BAY-3827] yielded an IC50 in [4] of 0.124 µM.
Consider `CC[C@@H]1[C@H](F)C(=O)N[C@@H]1COc1nccc2cc(C(N)=O)c(OC)cc12` [ZIMLOVISERTIB], for which the % of inhibition in assay [5] is -10.5%.
Take `COc1cc(Nc2nc(C)cc(-c3cnn4nc(OC)ccc34)n2)cc(C(F)(F)F)c1`: the % of control in [6] was 93%.
On to `C=CC(=O)Nc1cccc(C(=O)Nc2ccc(Nc3cc(-c4[nH]c(SC)nc4C)ccn3)cc2)c1`, for which the % of control in assay [7] (at 1 µM) came to 91%; in [7] (at 5 µM), 92%.
`C=CC(=O)Nc1cc(-n2c(=O)ccc3cnc4ccc(-c5ccc(NS(C)(=O)=O)cc5)cc4c32)ccc1C`: the % of control was 51% in assay [8], 100% in assay [9] (at 1 µM) and 59% in [9] (at 10 µM).
As for `COCC(=O)NC/C=C/c1ccc2ncnc(Nc3ccc(Oc4ccc(C)nc4)c(C)c3)c2c1` [CP-724714], the % of control in [10] stood at 52%.
